Test results: ChEMBL document CHEMBL4007392, “Modulating Mineralocorticoid Receptor with Non-steroidal Antagonists. New Opportunities for the Development of Potent and Selective Ligands without Off-Target Side Effects” (J Med Chem, 2017)

Tests used:
Androgen receptor = biological target: T1, Androgen receptor (Homo sapiens, UniProt P10275); test: Antagonist activity at GAL4-fused human AR LBD (667 to 919 residues) expressed in CHO-K1 cells assessed as inhibition of dihydrotestosterone-induced transactivation activity after 5 to 6 hrs by luciferase reporter gene assay; format: cell-based
T1 sequence (P10275 whole entry): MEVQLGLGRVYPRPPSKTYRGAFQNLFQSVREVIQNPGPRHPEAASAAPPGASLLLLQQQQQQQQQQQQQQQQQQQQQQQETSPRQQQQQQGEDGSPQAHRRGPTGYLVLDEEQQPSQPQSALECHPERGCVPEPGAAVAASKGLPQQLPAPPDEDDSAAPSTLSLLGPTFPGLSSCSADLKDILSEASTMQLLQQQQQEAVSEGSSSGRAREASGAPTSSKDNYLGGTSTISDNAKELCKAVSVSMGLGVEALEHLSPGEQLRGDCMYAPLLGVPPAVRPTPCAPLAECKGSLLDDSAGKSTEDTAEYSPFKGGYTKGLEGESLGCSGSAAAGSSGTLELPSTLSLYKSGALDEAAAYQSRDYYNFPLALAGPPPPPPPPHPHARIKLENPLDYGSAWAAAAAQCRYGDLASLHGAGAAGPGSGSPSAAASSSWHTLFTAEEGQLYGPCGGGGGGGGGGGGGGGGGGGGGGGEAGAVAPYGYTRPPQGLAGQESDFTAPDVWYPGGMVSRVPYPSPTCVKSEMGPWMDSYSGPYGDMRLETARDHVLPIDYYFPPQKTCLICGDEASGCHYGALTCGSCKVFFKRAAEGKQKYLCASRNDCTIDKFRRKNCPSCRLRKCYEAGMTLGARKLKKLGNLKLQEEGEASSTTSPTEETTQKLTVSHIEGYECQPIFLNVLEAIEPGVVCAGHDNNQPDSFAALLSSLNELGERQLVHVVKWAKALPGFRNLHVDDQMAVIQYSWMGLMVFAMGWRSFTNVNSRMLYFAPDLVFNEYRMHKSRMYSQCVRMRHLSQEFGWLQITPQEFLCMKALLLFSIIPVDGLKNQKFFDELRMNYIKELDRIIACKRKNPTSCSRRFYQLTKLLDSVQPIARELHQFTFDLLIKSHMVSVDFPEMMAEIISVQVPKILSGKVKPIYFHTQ

Progesterone receptor = biological target: T2, Progesterone receptor (Homo sapiens, UniProt P06401); test: Antagonist activity at GAL4-fused human PR LBD (680 to 933 residues) expressed in CHO-K1 cells assessed as inhibition of progesterone-induced transactivation activity after 5 to 6 hrs by luciferase reporter gene assay; format: cell-based
T2 sequence (P06401 whole entry): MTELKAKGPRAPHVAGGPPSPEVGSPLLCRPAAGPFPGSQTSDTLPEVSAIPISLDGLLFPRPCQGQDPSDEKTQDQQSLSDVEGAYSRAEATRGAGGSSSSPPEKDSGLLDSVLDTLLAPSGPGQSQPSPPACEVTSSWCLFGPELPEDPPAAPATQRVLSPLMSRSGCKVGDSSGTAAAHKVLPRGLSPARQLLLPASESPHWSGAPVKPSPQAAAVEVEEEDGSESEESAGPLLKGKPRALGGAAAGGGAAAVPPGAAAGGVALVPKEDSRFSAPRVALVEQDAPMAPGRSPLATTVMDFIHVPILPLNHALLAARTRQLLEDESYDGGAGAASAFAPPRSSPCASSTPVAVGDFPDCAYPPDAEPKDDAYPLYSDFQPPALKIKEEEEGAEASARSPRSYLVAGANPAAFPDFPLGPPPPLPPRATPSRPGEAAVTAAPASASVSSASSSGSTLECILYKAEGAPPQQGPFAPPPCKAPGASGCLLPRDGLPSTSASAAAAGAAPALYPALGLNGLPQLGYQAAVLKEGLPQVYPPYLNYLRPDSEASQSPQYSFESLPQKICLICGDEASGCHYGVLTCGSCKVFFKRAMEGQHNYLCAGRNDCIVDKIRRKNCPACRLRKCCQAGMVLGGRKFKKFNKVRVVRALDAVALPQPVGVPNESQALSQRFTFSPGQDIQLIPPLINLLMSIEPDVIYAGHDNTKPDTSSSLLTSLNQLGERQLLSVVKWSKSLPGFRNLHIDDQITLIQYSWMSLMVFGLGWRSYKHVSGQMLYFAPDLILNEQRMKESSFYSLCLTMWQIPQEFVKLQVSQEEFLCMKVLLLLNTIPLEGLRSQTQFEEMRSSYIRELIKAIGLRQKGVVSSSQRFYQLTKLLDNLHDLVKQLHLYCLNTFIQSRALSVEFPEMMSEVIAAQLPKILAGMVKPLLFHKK

Homo sapiens = species: Homo sapiens; test: Induction of improvement in urinary albumin-creatinine ratio in patient with diabetic nephropathy receiving ACE inhibitor or angiotensin receptor blocker at 7.5 to 20 mg/day during latter phase II trial; format: functional; parameters: scale not given: the % may be the effect or the level left
Glucocorticoid receptor = biological target: T3, Glucocorticoid receptor (Homo sapiens, UniProt P04150); test: Antagonist activity at GAL4-fused human GR LBD (443 to 777 residues) expressed in CHO-K1 cells assessed as inhibition of dexamethasone-induced transactivation activity after 5 to 6 hrs by luciferase reporter gene assay; format: cell-based
T3 sequence (P04150 whole entry): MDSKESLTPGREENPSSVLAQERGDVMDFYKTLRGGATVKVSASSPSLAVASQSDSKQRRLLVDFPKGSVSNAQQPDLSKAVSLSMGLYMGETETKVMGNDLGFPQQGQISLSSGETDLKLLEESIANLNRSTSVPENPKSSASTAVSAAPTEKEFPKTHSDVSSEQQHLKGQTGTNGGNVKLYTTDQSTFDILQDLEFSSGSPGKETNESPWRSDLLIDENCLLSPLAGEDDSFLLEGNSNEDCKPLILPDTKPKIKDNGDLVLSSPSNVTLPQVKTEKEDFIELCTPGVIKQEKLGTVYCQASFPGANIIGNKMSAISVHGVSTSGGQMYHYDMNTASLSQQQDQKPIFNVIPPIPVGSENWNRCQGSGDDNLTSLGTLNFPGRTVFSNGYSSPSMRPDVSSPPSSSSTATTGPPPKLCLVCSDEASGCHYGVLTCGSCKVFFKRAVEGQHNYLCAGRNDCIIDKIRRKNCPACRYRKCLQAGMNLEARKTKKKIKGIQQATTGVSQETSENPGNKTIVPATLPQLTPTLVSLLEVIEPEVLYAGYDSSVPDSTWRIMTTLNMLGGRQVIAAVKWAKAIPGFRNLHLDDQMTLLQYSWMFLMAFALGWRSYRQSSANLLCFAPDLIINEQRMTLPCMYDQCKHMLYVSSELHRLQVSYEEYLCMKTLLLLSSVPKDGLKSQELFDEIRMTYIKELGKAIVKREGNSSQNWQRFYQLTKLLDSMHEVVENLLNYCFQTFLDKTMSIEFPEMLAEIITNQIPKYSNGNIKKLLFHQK

CCOc1ncc(C)c2c1[C@H](c1ccc(C#N)cc1OC)C(C(N)=O)=C(C)N2 [FINERENONE]
IC50 (Androgen receptor): ≥ 10 µM
IC50 (Progesterone receptor): ≥ 10 µM
Activity (Homo sapiens): 21 - 38%
IC50 (Glucocorticoid receptor): ≥ 10 µM
